Test results reported in US20080138317A1, “Use of biocompatible amphiphilic polymers as an anti-inflammatory agent” (priority 2004, published 2008).

System: TNF-α release from monocytes
Format: cell-based
Details: supernatant of human monocytes after overnight incubation; okadaic acid (OA) 50 nM; troglitazone 30 μm; MGSA polymers 50%; ELISA
Procedure: Human monocytes were isolated from freshly collected buffy coat preparations of whole human blood. Briefly, whole blood was diluted 1:1.33 with sterile phosphate buffered solution (PBS) and layered over Histopaque, which was then centrifuged for 30 minutes at 1500 rpm at room temperature. The interface was harvested and washed with PBS, followed by another centrifugation at 1500 rpm for 10 minutes. A final wash was performed in RPMI 1640 with 10% fetal bovine serum (FBS). Cells were counted using a hemacytometer and seeded at 2.4×10^6 cells/300 μl into a 48-well tissue culture treated plate. Cells were incubated for 1 hour at 37° C., 5% CO2 and non-adherent cells were removed with a PBS wash. 300 μl of RPMI 1640 with 10% FBS was added back to the cells along with the various test conditions; cells in media alone, with DMSO (the vehicle used to reconstitue okadaic acid and troglitazone), with okadaic acid (OA, 50 nM), with OA and troglitazone (30 μm), with OA and monostearyl glyceride succinic anhydride (MGSA)-liquid (3305-15, 50%), and with OA and MGSA-solid (2804-60, 50%). The supernatants were collected after overnight incubation at 37° C., 5% CO2 and later analyzed for TNF-α by ELISA.

`C=C1[C@@H](O)[C@@H]2O[C@]3(CC[C@H](/C=C/[C@@H](C)[C@@H]4CC(C)=C[C@@]5(O[C@H](C[C@@](C)(O)C(=O)O)CC[C@H]5O)O4)O3)CC[C@H]2O[C@@H]1[C@@H](O)C[C@H](C)[C@H]1O[C@@]2(CCCCO2)CC[C@H]1C` [Okadaic Acid, okadaic acid] was tested, and the “TNF-α” value was 575.765 ng/mL.

`Cc1c(C)c2c(c(C)c1O)CCC(C)(COc1ccc(CC3SC(=O)NC3=O)cc1)O2` (centres unmarked) [Troglitazone] was tested, and the “TNF-α” value was 422.554 ng/mL.
